Test results: ChEMBL document CHEMBL5604063, “ASAP - DENV-2 NS2B-NS3 protease fluorescence dose response” (2024)

Molecular target: Genome polyprotein (dengue virus type 2, UniProt P29990)
Type: functional, Thailand/16681/1984

Sequence of Genome polyprotein (P29990 1346-1475 limits assumed): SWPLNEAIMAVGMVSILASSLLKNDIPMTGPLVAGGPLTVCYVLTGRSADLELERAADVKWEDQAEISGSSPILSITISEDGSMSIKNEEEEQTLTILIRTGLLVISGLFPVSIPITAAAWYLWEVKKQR
Sequence of Genome polyprotein (P29990 1476-2093 limits assumed): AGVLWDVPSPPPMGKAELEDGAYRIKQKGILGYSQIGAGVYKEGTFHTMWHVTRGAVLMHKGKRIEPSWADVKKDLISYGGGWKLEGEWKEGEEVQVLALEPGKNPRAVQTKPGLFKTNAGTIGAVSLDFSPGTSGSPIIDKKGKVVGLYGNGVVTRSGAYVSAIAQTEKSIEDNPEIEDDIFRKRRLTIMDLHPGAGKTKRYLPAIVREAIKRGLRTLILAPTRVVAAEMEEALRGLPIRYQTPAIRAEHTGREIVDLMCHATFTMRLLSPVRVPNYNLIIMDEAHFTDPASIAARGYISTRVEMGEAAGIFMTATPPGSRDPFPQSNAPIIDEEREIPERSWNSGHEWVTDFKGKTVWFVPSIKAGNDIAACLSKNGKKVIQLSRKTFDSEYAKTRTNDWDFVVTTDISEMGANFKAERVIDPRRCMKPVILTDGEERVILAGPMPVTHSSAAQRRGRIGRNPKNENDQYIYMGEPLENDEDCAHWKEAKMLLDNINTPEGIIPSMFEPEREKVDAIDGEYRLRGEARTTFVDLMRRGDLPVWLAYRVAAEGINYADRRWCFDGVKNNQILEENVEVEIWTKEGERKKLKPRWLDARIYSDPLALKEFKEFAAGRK

SMILES | IC50 [µM]
NCc1ccc(-c2ncc(OCC3CCNCC3)nc2-c2ccc(-c3ccoc3)cc2)cc1 | > 99.5
Cc1cc(Cl)c(C)c(C(=O)O)c1NS(=O)(=O)c1ccc(Oc2ccccc2Cl)cc1 | 36.5
C[C@@H](C(=O)Nc1cccc(CN)c1)c1ccc(OCc2ccccc2)cc1 | > 99.5
O=C(O)c1cc(Cl)ccc1CS(=O)(=O)c1ccc(Oc2ccccc2Cl)cc1 | > 99.5
CC(C)(C)OC(=O)NCc1cccc(NC(=O)[C@@H](NC(=O)OCc2ccccc2)c2ccc(O)cc2)c1 | > 99.5
Cc1cc(C(=O)O)c(NS(=O)(=O)c2ccc(Oc3ccccc3Cl)cc2)cc1F | 8.69
NCc1cccc(NC(=O)C[C@@H](NC(=O)OCc2ccccc2)c2ccc(OCc3ccccc3)cc2)c1 | 10.4
CCn1cc(-c2ccccc2)nc(N2CC[C@@H](CO)C2)c1=O | > 99.5
Cn1cc(C(=O)O)c(NS(=O)(=O)c2ccc(Oc3ccccc3Cl)cc2)n1 | > 99.5
COc1ccc(S(=O)(=O)Nc2cc(F)c(Cl)cc2C(=O)NCC(C)C)cc1 | 97
NCc1cccc(NC(=O)[C@@H](NC(=O)OCc2ccccc2)c2c(F)cccc2F)c1 | > 99.5
O=C(O)c1cc(Cl)ccc1NS(=O)(=O)c1ccc(Oc2ccccc2)cc1 | 21.7
Cc1cnn(-c2cc(C(=O)O)c(NS(=O)(=O)c3ccc(Oc4ccccc4Cl)cc3)cc2F)c1 | 6.2
CCn1cc(Cl)nc(N2CC[C@@H](CO)C2)c1=O | > 99.5
NC(=O)[C@H](c1c[nH]c2ccccc12)N1CCC(c2cnc3ccc[nH]c2-3)CC1 | > 99.5
O=C(O)c1cc(OC2CCOCC2)c(F)cc1NS(=O)(=O)c1ccc(Oc2ccccc2Cl)cc1 | 13.7
OC[C@H]1CCN(c2cncc(N3CCOCC3)n2)C1 | > 99.5
CCOc1cccc(N2CC[C@@H](CO)C2)c1 | > 99.5
Cc1cc(C(=O)O)c(NS(=O)(=O)c2ccc(Oc3ccccc3)cc2)cc1F | 24.9
CC(C)Oc1cncc(N2CC[C@@H](CO)C2)c1 | > 99.5
O=C(O)c1cc(Cl)c(Cl)cc1NS(=O)(=O)c1ccc(Oc2ccccc2Cl)cc1 | 6.6
Cn1cc(NS(=O)(=O)c2ccc(Oc3ccccc3Cl)cc2)c(C(=O)O)n1 | > 99.5
O[C@@H]1CN(Cc2c[nH]c3ccccc23)C[C@H]1c1c[nH]c2ccccc12 | > 99.5
CCn1cc(-c2ccnc(C)c2)nc(N2CC[C@@H](CO)C2)c1=O | > 99.5
NCc1cccc(NC(=O)[C@@H](N)c2ccc(OCc3ccccc3)cc2)c1 | > 99.5

SMILES | IC50 [µM]
NCc1cccc(NC(=O)[C@H](NC(=O)OCc2ccccc2)c2ccc(OCc3ccccc3)cc2)c1 | 8.05
O=C(O)c1cc(Oc2ccc(F)cc2)c(F)cc1NS(=O)(=O)c1ccc(Oc2ccccc2Cl)cc1 | 3.76
CCn1ccc(-c2ccc([C@@H](NC(=O)OCc3ccccc3)C(=O)Nc3cccc(CN)c3)cc2)n1 | > 99.5
COC(=O)c1cc(Cl)ccc1NS(=O)(=O)c1ccc(Br)cc1 | > 99.5
O=C(O)c1c(NS(=O)(=O)c2ccc(Oc3ccccc3Cl)cc2)ccc(Cl)c1F | 18.1
COC(=O)[C@@H]1CC2(CC[C@@H]1NS(=O)(=O)c1ccc(Oc3ccccc3Cl)cc1)CC2 | > 99.5
CCn1cc(C(=O)NC)nc(N2CC[C@@H](CO)C2)c1=O | > 99.5
NCc1cccc(CNC(=O)[C@H](NC(=O)OCc2ccccc2)c2ccc(OCc3ccccc3)cc2)c1 | 15.3
CCn1cc(C#N)nc(N2CC[C@@H](CO)C2)c1=O | > 99.5
NCc1cccc(NC(=O)[C@]2(NC(=O)OCc3ccccc3)CCOc3ccccc32)c1 | > 99.5
O=C(O)c1cc2c(cc1NS(=O)(=O)c1ccc(Oc3ccccc3Cl)cc1)CCC2 | 7.97
NCc1cccc(NC(=O)[C@@H](NC(=O)OCc2ccccc2)c2ccc(-c3ccccc3F)cc2)c1 | 10.4
COc1cc(Cl)cc(C(=O)O)c1NS(=O)(=O)c1ccc(Oc2ccccc2Cl)cc1 | 22.6
NCc1cc(Cl)ccc1NS(=O)(=O)c1ccc(Oc2ccccc2Cl)cc1 | > 99.5
COC(=O)c1cc(Cl)ccc1NS(=O)(=O)c1ccc(Oc2ccccc2Cl)cc1 | > 99.5
O=C(O)[C@H]1CCCC[C@@H]1NS(=O)(=O)c1ccc(Oc2ccccc2Cl)cc1 | > 99.5
O=C(NCC1CC1)c1cc(Cl)cc(NS(=O)(=O)c2ccc(Oc3ccccc3Cl)cc2)c1 | 23.5
O=C(O)[C@@H]1CC2(CC[C@@H]1NS(=O)(=O)c1ccc(Oc3ccccc3Cl)cc1)CC2 | > 99.5
NCc1cccc(NC(=O)CN2CCN(C(=O)OCc3ccccc3)CC2)c1 | > 99.5
O=C(NCC(F)(F)F)c1cc(Cl)c(F)cc1NS(=O)(=O)c1ccc(Oc2ccccc2Cl)cc1 | 5.18
COC(=O)c1cc(Cl)ccc1NS(=O)(=O)c1ccc(Cl)nc1 | > 99.5
NCc1cccc(NC(=O)CN(C(=O)OCc2ccccc2)c2ccc(OCc3ccccc3)cc2)c1 | 34.9
NCc1cccc(NC(=O)[C@@H](NC(=O)OCc2ccccc2)c2cccnc2)c1 | > 99.5
NCc1cccc(NC(=O)[C@H](NC(=O)OCc2ccccc2)C2CCCCC2)c1 | > 99.5
O=C(O)c1ccsc1NS(=O)(=O)c1ccc(Oc2ccccc2Cl)cc1 | 20.1

SMILES | IC50 [µM]
NCc1cccc(NC(=O)c2cc(OCc3ccccc3)ccc2CNC(=O)OCc2ccccc2)c1 | 24.8
O=C(O)c1cc(Cl)ccc1S(=O)(=O)Nc1ccc(Oc2ccccc2Cl)cc1 | 16.8
O=C(O)[C@@H]1CCCC[C@H]1NS(=O)(=O)c1ccc(Oc2ccccc2Cl)cc1 | > 99.5
O=C(O)c1cc(F)c(F)cc1NS(=O)(=O)c1ccc(Oc2ccccc2Cl)cc1 | 11.2
O=C(N[C@@H]1CCc2cn[nH]c2C1)c1cccc2c1NC(=O)[C@]1(CCCN1)C2 | > 99.5
O=C(O)c1nscc1NS(=O)(=O)c1ccc(Oc2ccccc2Cl)cc1 | 63.2
OC[C@H]1CCN(c2ccnc(C(F)F)c2)C1 | > 99.5
CCn1cc(-c2cnccc2C)nc(N2CC[C@@H](CO)C2)c1=O | > 99.5
O=C(O)c1cc(NS(=O)(=O)c2ccc(Oc3ccccc3Cl)cc2)ccc1Cl | > 99.5
O=C(O)c1cscc1NS(=O)(=O)c1ccc(Oc2ccccc2Cl)cc1 | 34.1
CCn1ccnc(N2C[C@@H](OC(=O)OC)[C@H](c3c[nH]c4ccccc34)C2)c1=O | > 99.5
Cc1cccc([C@@H](NC(=O)OCc2ccccc2)C(=O)Nc2cccc(CN)c2)n1 | > 99.5
Cn1cc(CN2CCC(c3c[nH]c4cccnc34)CC2)c2ccccc21 | > 99.5
CC(C)(C)OC(=O)NCc1cccc(NC(=O)[C@@H](NC(=O)OCc2ccccc2)c2cccc(O)c2)c1 | > 99.5
Cc1cc(C=O)c(C)n1-c1cccc(C(=O)N2CCN(C)CC2)c1 | > 99.5
O=C(O)[C@@H]1CCCC[C@@H]1NS(=O)(=O)c1ccc(Oc2ccccc2Cl)cc1 | > 99.5
NCc1cccc(NC(=O)C2(CNC(=O)OCc3ccccc3)CCCC2)c1 | > 99.5
COc1cc(NS(=O)(=O)c2ccc(Oc3ccccc3Cl)cc2)c(C(=O)O)cc1Cl | 8.67
Cc1cc(C(=O)N[C@@H]2CC[C@@H]3CN(C)C[C@@H]32)sc1C=O | > 99.5
Cc1ncc(-c2ccc([C@@H](NC(=O)OCc3ccccc3)C(=O)Nc3cccc(CN)c3)cc2)s1 | 29.4
O=C(NCC1CC1)[C@H]1CCCC[C@H]1NS(=O)(=O)c1ccc(Oc2ccccc2Cl)cc1 | > 99.5
OC[C@H]1CCN(c2cnc3ccccc3n2)C1 | > 99.5
CCn1ccnc(N2C[C@H](c3c[nH]c4ccccc34)[C@H](OC(C)=O)C2)c1=O | > 99.5
